Structures can show the parent of a compound that is named as a salt.
Assays:
Hsp82 = Hsp82 (Saccharomyces cerevisiae, UniProt P02829); assay: Hsp82/ATPase test (malachite green or PK/LDH coupled method); assay type: biochemical; conditions: 1 μM Hsp82, 250 μM ATP, 37° C.; read-out: Hsp82 ATPase IC50
Experimental: The biochemical activity of the compounds can in particular be evaluated by means of the “Hsp82/ATPase” test described below: The inorganic phosphate released during the hydrolysis of ATP by the ATPase activity of Hsp82 is quantified by the malachite green method. In the presence of this reagent, formation of the inorganic phosphate-molybdate-malachite green complex, which absorbs at a wavelength of 620 nm, occurs. The products to be evaluated are incubated in a reaction volume of 30 μl, in the presence of 1 μM Hsp82 and of 250 μM of substrate (ATP) in a buffer composed of 50 mM Hepes-NaOH (pH 7.5), 1 mM DTT, 5 mM MgCl2 and 50 mM KCl at 37° C. for 60 min. In parallel, an inorganic phosphate range of between 1 and 40 μM is made up in the same buffer. […] After incubation at ambient temperature for 20 min, the absorbance of the various wells is measured using a microplate reader at 620 nm. The inorganic phosphate concentration of each sample is then calculated from the standard curve. The ATPase activity of Hsp82 is expressed as concentration of inorganic phosphate produced in 60 minutes. The effect of the various products tested is expressed as percentage inhibition of the ATPase activity. The formation of ADP due to the ATPase activity of Hsp82 was used to develop another method for evaluating the enzyme activity of this enzyme by application of an enzymatic coupling system involving pyruvate kinase (PK) and lactate dehydrogenase (LDH). In this kinetic-type spectrophotometric method, PK catalyses the formation of ATP and of pyruvate from phosphoenol pyruvate (PEP) and the ADP produced by Hsp82. The pyruvate formed, which is a substrate for LDH, is subsequently converted to lactate in the presence of NADH. In this case, the decrease in the NADH concentration, measured through the decrease in absorbance at the wavelength of 340 nm, is proportional to the concentration of ADP produced by Hsp82. The products tested are incubated in a reaction volume of 100 μl of buffer composed of 100 mM Hepes-NaOH (pH 7.5), 5 mM MgCl2, 1 mM DTT, 150 mM KCl, 0.3 mM NADH, 2.5 mM PEP and 250 μM ATP. This mixture is preincubated at 37° C. for 30 minutes before the addition of 3.77 units of LDH and 3.77 units of PK. The reaction is initiated by addition of the product to be evaluated, in varying concentrations, and of Hsp82, at the concentration of 1 μM. The enzymatic activity of Hsp82 is then measured continuously, in a microplate reader, at 37° C., at the wavelength of 340 nm. The initial rate of the reaction is obtained by measuring the slope of the tangent to the origin of the curve recorded. The enzymatic activity is expressed in μM of ADP formed per minute. The effect of the various products tested is expressed as percentage inhibition of the ATPase activity according to the codification below: […]

[1] = tested on: Her2 receptor expression at the surface of SKBr3 cells; assay: phenotypic SKBr3/HER2 cell test (Her2 surface expression by flow cytometry); assay type: cell-based; conditions: Homo sapiens, SK-BR-3, 24 h incubation, inhibition of Her2 expression
Summary of the method: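 SKBr3 cells (Her2-overexpressing adenocarcinoma) treated 24 h with compound at varying concentrations, then stained with PE-anti-Her2 antibody 30 min at 4° C; surface Her2 measured by flow cytometry. IC50 from nonlinear fit of % inhibition of Her2 expression versus concentration.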

Hsp82, sequence (P02829 whole entry): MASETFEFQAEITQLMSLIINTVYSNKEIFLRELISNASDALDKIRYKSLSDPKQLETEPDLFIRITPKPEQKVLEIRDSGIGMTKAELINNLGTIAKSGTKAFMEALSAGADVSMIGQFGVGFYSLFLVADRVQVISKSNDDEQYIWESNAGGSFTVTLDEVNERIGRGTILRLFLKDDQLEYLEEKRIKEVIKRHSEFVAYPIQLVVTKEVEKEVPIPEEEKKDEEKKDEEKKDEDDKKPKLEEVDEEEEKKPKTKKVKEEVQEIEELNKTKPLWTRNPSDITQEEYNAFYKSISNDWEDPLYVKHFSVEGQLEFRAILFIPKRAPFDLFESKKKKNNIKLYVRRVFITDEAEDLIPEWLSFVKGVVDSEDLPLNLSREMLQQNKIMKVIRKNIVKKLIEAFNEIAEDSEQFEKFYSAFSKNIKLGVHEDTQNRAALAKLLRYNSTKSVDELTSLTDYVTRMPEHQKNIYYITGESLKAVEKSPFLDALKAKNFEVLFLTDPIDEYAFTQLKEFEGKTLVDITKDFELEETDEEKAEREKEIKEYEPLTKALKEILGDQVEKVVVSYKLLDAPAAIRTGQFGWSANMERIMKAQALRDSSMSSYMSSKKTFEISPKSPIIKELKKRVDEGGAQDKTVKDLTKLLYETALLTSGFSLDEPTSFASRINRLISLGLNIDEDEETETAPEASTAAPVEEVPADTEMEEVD

| IC50 (Hsp82) | IC50 [1] | SMILES |
| --- | --- | --- |
| 1000 to 10000 nM | 1000 to 10000 nM | Nc1n[nH]c2cc(-n3c4ccccc4c4c(-c5nc6ccc(F)cc6[nH]5)cccc43)ccc12 [Example 12, 6-[4-(6-fluoro-1H-benzimidazol-2-yl)-9H-carbazol-9-yl]-1H-indazol-3-ylamine] |
| 1000 to 10000 nM | 1000 to 10000 nM | Nc1noc2cc(-n3c4ccccc4c4c(-c5nc6ccc(F)cc6[nH]5)cccc43)ccc12 [Example 13, 6-[4-(6-fluoro-1H-benzimidazol-2-yl)-9H-carbazol-9-yl]-1,2-benzisoxazol-3-ylamine] |
| 1000 to 10000 nM | < 1000 nM | NC(=O)c1ccc(-n2c3ccccc3c3c(-c4nc5ccc(F)cc5[nH]4)cccc32)cc1F [Example 14, 2-fluoro-4-[4-(6-fluoro-1H-benzimidazol-2-yl)-9H-carbazol-9-yl]benzamide] |
| 1000 to 10000 nM | < 1000 nM | CC(C)(C)OC(=O)CC(=O)O[C@H]1CC[C@H](Nc2cc(-n3c4ccccc4c4c(-c5nc6ccc(F)cc6[nH]5)cccc43)ccc2C(N)=O)CC1 [Example 15, tert-butyl and 4-{2-carbamoyl-5-[4-(6-fluoro-1H-benzimidazol-2-yl)-9H-carbazol-9-yl]phenylamino}cyclohexyl ester of malonic acid] |
| 1000 to 10000 nM | 1000 to 10000 nM | Nc1nn(CCO)c2cc(-n3c4ccccc4c4c(-c5nc6ccc(F)cc6[nH]5)cccc43)ccc12 [Example 16, 2-{3-amino-6-[4-(6-fluoro-1H-benzimidazol-2-yl)-9H-carbazol-9-yl]indazol-1-yl}ethanol] |
| < 1000 nM | < 1000 nM | CC(=O)NCCNc1cc(-n2c3ccccc3c3c(-c4nc5ccc(F)cc5[nH]4)cccc32)ccc1C(N)=O [Example 17, 2-(2-acetylaminoethylamino)-4-[4-(6-fluoro-1H-benzimidazol-2-yl)-9H-carbazol-9-yl]benzamide] |
| < 1000 nM | 1000 to 10000 nM | NCCNc1cc(-n2c3ccccc3c3c(-c4nc5ccc(F)cc5[nH]4)cccc32)ccc1C(N)=O [Example 18, 2-(2-aminoethylamino)-4-[4-(6-fluoro-1H-benzimidazol-2-yl)-9H-carbazol-9-yl]benzamide] |
| 1000 to 10000 nM | 1000 to 10000 nM | NC(=O)c1ccc(-n2c3ccccc3c3c(-c4nc5ccc(F)cc5[nH]4)cccc32)nc1 [Example 19, 6-[4-(6-fluoro-1H-benzimidazol-2-yl)carbazol-9-yl]nicotinamide] |
| < 1000 nM | < 1000 nM | NC(=O)c1ccc(-n2c3ccccc3c3c(-c4ccc(N)nc4)cccc32)cc1N[C@H]1CC[C@H](O)CC1 [Example 20, 4-[4-(6-aminopyridin-3-yl)-9H-carbazol-9-yl]-2-[(4-trans-hydroxycyclohexyl)amino]benzamide] |
| 1000 to 10000 nM | < 1000 nM | NCCC(=O)O[C@H]1CC[C@H](Nc2cc(-n3c4ccccc4c4c(-c5nc6ccc(F)cc6[nH]5)cccc43)ccc2C(N)=O)CC1 [Example 24, trifluoroacetate of the 4-trans-{2-carbamoyl-5-[4-(6-fluoro-1H-benzimidazol-2-yl)-9H-carbazol-9-yl]phenylamino}cyclohexyl ester of 3-aminopropionic acid] |
| 1000 to 10000 nM | < 1000 nM | NCC(=O)O[C@H]1CC[C@H](Nc2cc(-n3c4ccccc4c4c(-c5nc6ccc(F)cc6[nH]5)cccc43)ccc2C(N)=O)CC1 [Example 25, trifluoroacetate of the 4-trans-{2-carbamoyl-5-[4-(6-fluoro-1H-benzimidazol-2-yl)-9H-carbazol-9-yl]phenylamino}cyclohexyl ester of aminoacetic acid] |
| < 1000 nM | < 1000 nM | C[C@H](N)C(=O)O[C@H]1CC[C@H](Nc2cc(-n3c4ccccc4c4c(-c5nc6ccc(F)cc6[nH]5)cccc43)ccc2C(N)=O)CC1 [Example 26, trifluoroacetate of the 4-trans-{2-carbamoyl-5-[4-(6-fluoro-1H-benzimidazol-2-yl)-9H-carbazol-9-yl]phenylamino}cyclohexyl ester of 2(S)-aminopropionic acid] |
| < 1000 nM | < 1000 nM | NC(=O)c1ccc(-n2c3ccccc3c3c(-c4ccc(CO)nc4)cccc32)cc1N[C@H]1CC[C@H](O)CC1 [Example 29, 2-[(4-trans-hydroxycyclohexyl)amino]-4-{4-[6-(hydroxymethyl)pyridin-3-yl]-9H-carbazol-9-yl}benzamide] |
| 1000 to 10000 nM | 1000 to 10000 nM | NC(=O)c1ccc(-n2c3ccccc3c3c(-c4cnc5ccccc5c4)cccc32)cc1 [Example 30, 4-[4-(quinolin-3-yl)-9H-carbazol-9-yl]benzamide] |
| < 1000 nM | < 1000 nM | NC(=O)c1ccc(-n2c3ccccc3c3c(-c4cnc5ccccc5c4)cccc32)cc1NCCCO [Example 31, 2-(3-hydroxypropyl)amino-4-[4-(quinolin-3-yl)-9H-carbazol-9-yl]benzamide] |
| < 1000 nM | < 1000 nM | CC(O)CCNc1cc(-n2c3ccccc3c3c(-c4cnc5ccccc5c4)cccc32)ccc1C(N)=O (stereo not drawn) [Example 32, 2-(3-hydroxybutyl)amino-4-[4-(quinolin-3-yl)-9H-carbazol-9-yl]benzamide] |
| < 1000 nM | < 1000 nM | COCCCNc1cc(-n2c3ccccc3c3c(-c4cnc5ccccc5c4)cccc32)ccc1C(N)=O [Example 33, 2-(3-methoxypropyl)amino-4-[4-(quinolin-3-yl)-9H-carbazol-9-yl]benzamide] |
| < 1000 nM | < 1000 nM | NC(=O)CCNc1cc(-n2c3ccccc3c3c(-c4cnc5ccccc5c4)cccc32)ccc1C(N)=O [Example 34, 2-(2-carbamoylethylamino)-4-[4-(quinolin-3-yl)-9H-carbazol-9-yl]benzamide] |
| < 1000 nM | < 1000 nM | COCCCNc1cc(-n2c3ccccc3c3c(-c4nc5ccc(F)cc5[nH]4)cccc32)ccc1C(N)=O [Example 38, 4-[4-(6-fluoro-1H-benzimidazol-2-yl)-9H-carbazol-9-yl]-2-(3-methoxypropylamino)benzamide] |
| < 1000 nM | < 1000 nM | NC(=O)c1ccc(-n2c3ccccc3c3c(-c4nc5ccc(F)cc5[nH]4)cccc32)cc1NCCO [Example 42, 4-[4-(6-fluoro-1H-benzimidazol-2-yl)-9H-carbazol-9-yl]-2-(2-hydroxyethylamino)benzamide] |
| < 1000 nM | < 1000 nM | CN(C)CCNc1cc(-n2c3ccccc3c3c(-c4nc5ccc(F)cc5[nH]4)cccc32)ccc1C(N)=O [Example 43, 2-(2-dimethylaminoethylamino)-4-[4-(6-fluoro-1H-benzimidazol-2-yl)-9H-carbazol-9-yl]benzamide] |

| SMILES | IC50 (Hsp82) | IC50 [1] |
| --- | --- | --- |
| CC(C)(C)OC(=O)NCC(=O)O[C@H]1CC[C@H](Nc2cc(-n3c4ccccc4c4c(-c5nc6ccc(F)cc6[nH]5)cccc43)ccc2C(N)=O)CC1 [Example 21, tert-butoxycarbonylaminoacetic acid 4-trans-{2-carbamoyl-5-[4-(6-fluoro-1H-benzimidazol-2-yl)-9H-carbazol-9-yl]phenylamino}cyclohexyl ester] | 1000 to 10000 nM | < 1000 nM |
| C[C@H](NC(=O)OC(C)(C)C)C(=O)O[C@H]1CC[C@H](Nc2cc(-n3c4ccccc4c4c(-c5nc6ccc(F)cc6[nH]5)cccc43)ccc2C(N)=O)CC1 [Example 22, 2(S)-tert-butoxycarbonylaminopropionic acid 4-trans-{2-carbamoyl-5-[4-(6-fluoro-1H-benzimidazol-2-yl)-9H-carbazol-9-yl]phenylamino}cyclohexyl ester] | 1000 to 10000 nM | < 1000 nM |
| CC(C)(C)OC(=O)NCCC(=O)O[C@H]1CC[C@H](Nc2cc(-n3c4ccccc4c4c(-c5nc6ccc(F)cc6[nH]5)cccc43)ccc2C(N)=O)CC1 [Example 23, 3-tert-butoxycarbonylaminopropionic acid 4-trans-{2-carbamoyl-5-[4-(6-fluoro-1H-benzimidazol-2-yl)-9H-carbazol-9-yl]phenylamino}cyclohexyl ester] | 1000 to 10000 nM | < 1000 nM |
